Measurements reported in patent US20170115308A1, “ASSAY TO MEASURE EFFICACY OF CDK8/19 INHIBITORS” (SENEX BIOTECHNOLOGY, INC., priority 2014, published 2017).

How the values were obtained:
[1] = test system: STAT1 S727 phosphorylation; details: Bancerek et al., 2013; cited from earlier work
[2] = test system: STAT1 S727 phosphorylation; assay: STAT1 S727 phosphorylation by immunoblotting in HCT116 colon carcinoma cells; assay type: cell-based, human; details: for inhibition of STAT1 S727 phosphorylation: HCT116, 24 hr treatment, different concentrations
Protocol: (§1) STAT1 S727 phosphorylation was analyzed by immunoblotting using the following primary antibodies: Phospho-Stat1 (Ser727) (D3B7) Rabbit mAb #8826 (used at 1:1000 dilution) and Rabbit Ab #9177 (used at 1:500 dilution) from Cell Signaling Technology (Danvers, Mass.), and total-STAT1 Stat1 p84/p91 Antibody (M-22): sc-592 from Santa Cruz Biotechnology (Dallas, Tex.), used at 1:500 dilution. As a loading control an antibody against a housekeeping protein GAPDH (6C5 mouse monoclonal antibody from Abcam), was used at 1:1000 dilution.
In the experiments shown in FIG. 2, this analysis was continued in HCT116 human colon carcinoma cells.

[3] = test system: STAT1 S727 phosphorylation; assay: STAT1 S727 phosphorylation by immunoblotting in SKBR3 breast cancer cells; assay type: cell-based, human; details: SKBR3, 1 μM or 5 μM, after 30 min of treatment
Protocol: as §1
(§2) FIG. 3 illustrates the inhibition of basal STAT1 S727 phosphorylation by CDK8/19 inhibitors in human breast cancer cell lines.

[4] = test system: STAT1 S727 phosphorylation; assay: STAT1 S727 phosphorylation by immunoblotting in MDA-MB-361 breast cancer cells; assay type: cell-based, human; details: MDA-MB-361, 6 hr, 5 μM
Protocol: as §1, §2

[5] = test system: STAT1 S727 phosphorylation; assay: STAT1 S727 phosphorylation by immunoblotting in LNCaP-LN3 derivatives (DV and DK); assay type: cell-based, human; details: treated for 5 hrs
Protocol: as §1
In the experiment shown in FIG. 1, human LNCaP-LN3 cells, an in vivo-derived metastatic variant of LNCaP prostate cancer cells were used. We have compared STAT1 S727 phosphorylation in two derivatives of LNCaP-LN3, one with shRNA knockdown of both CDK8 and CDK19 (CDK8 shRNA was expressed from lentiviral vector PHLB carrying blasticidin resistance marker; CDK19 shRNA was expressed from lentiviral vector pLKO.1 carrying puromycin resistance marker) (DK, double knockdown), and in control cells transduced with insert-free PHLB and pLK0.1 vectors (DV, double vector). […] The immunoblotting for phospho-STAT1 S727 (pSTAT1) and total STAT1 (tSTAT1) is shown in FIG. 1A, and image quantitation for the ratio of pSTAT1/tSTAT1 is shown in FIG. 1B. […]

[6] = test system: STAT1 S727 phosphorylation; assay: STAT1 S727 phosphorylation by immunoblotting in MCF7 breast cancer cells; assay type: cell-based, human
Protocol: as §1, §2

[7] = test system: STAT1 in complexes with CDK8; assay: CDK8 immunoprecipitation from HCT116 cells, immunoblotted for total STAT1 or phospho-STAT1 S727; assay type: cell-based, human; details: HCT116, 24 hrs, 10 μM
Excerpt: To determine whether the effect of CDK8/19 inhibitors on STAT1 S727 phosphorylation involved direct interaction between CDK8 and STAT1, we have asked if STAT1 and CDK8 would co-immunoprecipitate, and if so, whether CDK8/19 kinase inhibition would affect STAT1 phosphorylation in complexes with CDK8.

[8] = test system: STAT1 S727 phosphorylation; assay: In situ immunofluorescence staining for phospho-STAT1 S727 and total STAT1 in HCT116 cells; assay type: cell-based, human
[9] = test system: STAT1 S727 phosphorylation; assay: In situ immunofluorescence staining for phospho-STAT1 S727 and total STAT1 in MCF7 cells; assay type: cell-based, human
[10] = test system: Pol II CTD phosphorylation; assay: Immunoblotting of total Pol II CTD phosphorylation in whole-cell lysates of 293 cells; assay type: cell-based, human; details: 293 whole-cell lysates, same conditions as the ChIP
Excerpt: (§3) Results are shown for three biological replicates.

[11] = test system: STAT1 S727 phosphorylation; assay: STAT1 S727 phosphorylation in whole-cell protein extracts of 293 cells; assay type: cell-based, human; details: 5 μM
Protocol: as §3, §1

[12] = test system: proteins bound at NFκB-regulated and housekeeping genes; assay: Chromatin immunoprecipitation (ChIP) with quantitative real-time PCR in 293 cells; assay type: cell-based, human
Excerpt: Sonicated chromatin was immunoprecipitated with the antibodies against the indicated proteins. The ChIP preps were used for quantitative real-time PCR amplification of different segments of the indicated genes (X-axes show the positions of the tested segments relative to transcription start sites). The results of this analysis for all four conditions (blue, control; red, Senexin A; green, TNFα; purple, TNFα plus Senexin A) are shown, with the genomic positions of the PCR primers diagrammed at the top of the figure.
(Burke et al., 2014) have recently shown that STAT1 cooperates with NFκB in the induction of CXCL1 and CXCL2 transcription by IL-1β in rat insulinoma cells. We have therefore tested whether TNFα-induced CXCL1 and CXCL2 transcription in HEK-293 cells involves STAT1 and whether pSTAT1 in this system is affected by CDK8/19 inhibition. This analysis was conducted by chromatin immunoprecipitation (ChIP) of 293 cells that were pre-treated with 5 μM CDK8/19 inhibitor Senexin A (Porter et al., 2012) or carrier for one hour, at which point either TNFα at 10 ng/ml or carrier was added for 30 min. Sonicated chromatin was extracted as described (Galbraith et al., 2013) and immunoprecipitated with the antibodies against the indicated proteins. […] The results of this analysis for all four conditions (untreated, Senexin A, TNFα, and TNFα plus Senexin A) are shown in FIG. 5, with the genomic positions of the tested ChIP primers diagrammed at the top of the figure.

[13] = test system: TNFα-induced CXCL1 and CXCL2 transcription; assay: Induction of NFκB-regulated genes by TNFα in HEK-293 cells; assay type: cell-based, human
[14] = 5 μM pre-treatment one hour, TNFα 10 ng/ml 30 min

In the case of CN1CC[C@H](c2c(O)cc(O)c3c(=O)cc(-c4ccccc4Cl)oc23)[C@H](O)C1 [flavopiridol], the “enhancement of STAT1 S727 phosphorylation by LPS or anisomycin” value [1] is listed as “failed to inhibit”.

With Cortistatin A the “inhibition of STAT1 S727 phosphorylation” value [2] was “concentration-dependent inhibition”.

In the case of CN(C)C1CC23CCC4(O2)C(=CCC2(C)C(c5ccc6ccncc6c5)=CCC24)C=C3C(O)C1O (stereo not drawn) [16-didehydro-cortistatin A], the “inhibition of STAT1 S727 phosphorylation” value [2] is reported as “inhibited STAT1 S727 phosphorylation similarly to Senexin B”.

For CN1CCN(C(=O)c2ccc3cc(CCNc4ncnc5ccc(C#N)cc45)ccc3c2)CC1 [Senexin B], the “inhibition of STAT1 S727 phosphorylation, time course” value [3] was “strong inhibition”, the “inhibition of STAT1 S727 phosphorylation” value [4] was “inhibits STAT1 S727 phosphorylation” and the “concentration from which STAT1 S727 phosphorylation plateaus at a low level” value ([5]; LNCaP-LN3 DV and DK cells) was 1 µM. The “concentration from which basal STAT1 S727 phosphorylation is decreased (lowest concentration)” value ([5]; LNCaP-LN3 cells, pSTAT1/tSTAT1 ratio) was 16 nM, the “inhibition of STAT1 S727 phosphorylation, concentration series” value ([6]; MCF7, 24 hr treatment, indicated concentrations) was “concentration-dependent inhibition” and the “inhibition of STAT1 S727 phosphorylation” value ([6]; MCF7, 24 hr, 5 μM, two antibodies (#8826 and #9177)) was “inhibition of STAT1 S727 phosphorylation”. For the same compound, the “binding of total STAT1 to CDK8 (co-immunoprecipitation)” value [7] was “does not affect the binding of total STAT1”, the “phospho-STAT1 S727 in CDK8 immunoprecipitate” value [7] was “inhibits its phosphorylation at S727” and the “staining with phospho-STAT1 S727 antibody in situ” value [8] was “inhibition of STAT1 S727 phosphorylation”. The “staining with the antibody against total STAT1” value [8] was “no apparent effect”, the “treatment time after which inhibition of STAT1 S727 phosphorylation is noticeable” value ([2]; HCT116, 5 μM) was 15 min and the “treatment time after which inhibition of STAT1 S727 phosphorylation is very strong” value ([2]; HCT116, 5 μM) was 1 h. For the same compound, the “inhibition of STAT1 S727 phosphorylation” value [2] was “concentration-dependent inhibition”, the “staining with phospho-STAT1 S727 antibody in situ” value [9] was “inhibition of STAT1 S727 phosphorylation” and the “staining with the antibody against total STAT1” value [9] was “no apparent effect”.

For N#Cc1ccc2ncnc(NCCc3ccccc3)c2c1 [Senexin A], the “total Pol II CTD phosphorylation” value [10] was “not significantly affected”, the “STAT1 S727 phosphorylation in whole-cell protein extracts” value [11] was “strongly inhibited” and the “treatment time after which the effect on STAT1 S727 phosphorylation is noticeable” value [11] was 15 min. The “treatment time after which the effect on STAT1 S727 phosphorylation is very strong” value [11] was 1 h, the “Pol II recruitment and distribution along the regulated genes” value [12, 14] was “moderate effect” and the “recruitment of p65 subunit of NFκB and CDK8 to promoters of NFκB-regulated genes” value [12, 14] was “little or no effect”. For the same compound, the “phospho-STAT1 S727 (pSTAT1) at CXCL1” value ([12]; 5 μM, TNFα) was “a strong effect”, the “phospho-STAT1 S727 (pSTAT1) at NFKBIA” value ([12]; 5 μM, TNFα) was “a weaker effect” and the “phospho-STAT1 S727 (pSTAT1) at the housekeeping genes” value ([12]; 5 μM, TNFα) was “little or no effect”. The “Pol II CTD phosphorylation (S5P, S2P) at the strongly regulated genes” value ([12]; 5 μM, TNFα, CXCL1 and CXCL2) was “strongly inhibited”, the “association of pSTAT1 with any of the tested genes” value ([12]; absence of TNFα, total of 90 min treatment) was “unaffected” and the “regulation of housekeeping genes HGPRT and GAPDH” value [13] was “not regulated”. The “inhibition of TNFα induction of CXCL1” value ([13]; 5 μM, TNFα 10 ng/ml) was about 10 fold, the “inhibition of TNFα induction of CXCL2” value ([13]; 5 μM, TNFα 10 ng/ml) was about 10 fold and the “inhibition of TNFα induction of NFKBIA” value ([13]; 5 μM, TNFα 10 ng/ml) was about 1.4 fold.
